Values of other authors in patent US7138430B2, “Nitrosated and nitrosylated nebivolol and its metabolites, compositions and methods of use” (NitroMed, Inc., priority 2001, dated 2006).

## O=[N+]([O-])O[C@H]1CO[C@H]2[C@@H]1OC[C@H]2O[N+](=O)[O-] [isosorbide dinitrate, 1,4,3,6-dianhydro-D-glucitol-2,5-dinitrate]
Organic solvents such as ethanol, ether and chloroform
  solubility in organic solvents: freely soluble
water
  solubility in water: sparingly soluble
